Experimental findings from the supplement of paper PMC4314810 are described below.

± gives the standard deviation of the averaged measurements.

The series relates to MCF7. The experiment in a line: HRG-induced Akt activation (dPAkt = log2 pAkt/Akt HRG-stimulated minus log2 pAkt/Akt basal) (log2 ratio difference); higher = stronger HRG-induced Akt(T308) phosphorylation. To be noted: miRNA mimic concentration 10 nM; time after transfection 72 h; heregulin 10 ng/ml; stimulation time 1 h. A digest of the protocol: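 Akt activation induced by heregulin was calculated as the difference between stimulated and unstimulated log ratios of phospho-Akt to total Akt, then averaged across replicates. The ratio was taken as log2(pAkt/Akt) from In-Cell Western readings of phospho-Akt(T308) and total Akt on an Odyssey, corrected for column-wise fixation decay. Before reading, MCF7 cells ([…], 96-well plates) transfected with 879 miRNA mimics at 10 nM final via Lipofectamine RNAiMax were, after 72 h, given 10 ng/ml heregulin-beta1 for 1 h or no stimulus, then fixed with 4% PFA. Two biological replicates were run.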
On to CAAGUCACUAGUGGUUCCGUU, for which the “HRG-induced Akt activation (log2)” value was found to be 1.49 ± 0.5.
The result for CAAGUCUUAUUUGAGCACCUGUU reads 1.94 ± 0.12; that for CAAUCACUAACUCCACUGCCAU, 1.69 ± 0.37.
Take CAAUCAGCAAGUAUACUGCCCU: the “HRG-induced Akt activation (log2)” value was 1.93 ± 0.24.
The result for CAAUGUUUCCACAGUGCAUCAC reads 1.1 ± 0.42; that for CAAUUUAGUGUGUGUGAUAUUU, 2 ± 0.13; that for CACAAGGUAUUGGUAUUACCU, 1.79 ± 0.25.
To CACACACUGCAAUUACUUUUGC belongs 1.53 ± 0.053; to CACAUUACACGGUCGACCUCU, 1.173 ± 0.0052.
To CACCAGGCAUUGUGGUCUCC belongs 2.13 ± 0.28; to CACCCGGCUGUGUGCACAUGUGC, 1.53 ± 0.48.
As to CACCCGUAGAACCGACCUUGCG, the “HRG-induced Akt activation (log2)” value is 1.4 ± 0.22.
Take CACGCUCAUGCACACACCCACA: the “HRG-induced Akt activation (log2)” value was 1.68 ± 0.14.
To CACUAGAUUGUGAGCUCCUGGA belongs 1.69 ± 0.57; to CACUCAGCCUUGAGGGCACUUUC, 0.664 ± 0.32.
In the case of CACUGGCUCCUUUCUGGGUAGA, the “HRG-induced Akt activation (log2)” value worked out at 2.02 ± 0.43.
Regarding CACUGUAGGUGAUGGUGAGAGUGGGCA, the “HRG-induced Akt activation (log2)” value amounted to 1.51 ± 0.23.
As for CACUGUGUCCUUUCUGCGUAG, the “HRG-induced Akt activation (log2)” value was determined as 1.86 ± 0.19.
The result for CAGCAGCAAUUCAUGUUUUGAA reads 1.53 ± 0.33.
The result for CAGCAGCACACUGUGGUUUGU reads 1.54 ± 0.46; that for CAGCCACAACUACCCUGCCACU, 1.94 ± 0.99.
Turning to CAGGAUGUGGUCAAGUGUUGUU, the “HRG-induced Akt activation (log2)” value was 1.41 ± 0.093.
The result for CAGGCCAUAUUGUGCUGCCUCA reads 1.88 ± 0.66; that for CAGGGAGGUGAAUGUGAU, 1.71 ± 0.099; that for CAGGUCGUCUUGCAGGGCUUCU, 1.44 ± 0.68.
As for CAGUAACAAAGAUUCAUCCUUGU, the “HRG-induced Akt activation (log2)” value stood at 2.1 ± 0.17.
To CAGUGCAAUAGUAUUGUCAAAGC belongs 1.02 ± 0.51.
For the sequence CAGUGCAAUGAUAUUGUCAAAGC, the “HRG-induced Akt activation (log2)” value turned out to be 1.07 ± 0.53.
With CAGUGCAAUGAUGAAAGGGCAU, the “HRG-induced Akt activation (log2)” value came to 1.31 ± 0.024.
To CAGUGCAAUGUUAAAAGGGCAU belongs 0.895 ± 0.16; to CAGUGCCUCGGCAGUGCAGCCC, 1.45 ± 0.064; to CAGUGGUUUUACCCUAUGGUAG, 1.91 ± 0.035.
Consider CAGUUAUCACAGUGCUGAUGCU, for which the “HRG-induced Akt activation (log2)” value is 1.66 ± 0.42.
The result for CAUAAAGUAGAAAGCACUACU reads 1.54 ± 0.062; that for CAUCAUCGUCUCAAAUGAGUCU, 1.91 ± 0.32.
To CAUCCCUUGCAUGGUGGAGGG belongs 1.97 ± 0.25; to CAUCUUACCGGACAGUGCUGGA, 1.841 ± 0.015; to CAUCUUACUGGGCAGCAUUGGA, 2.05 ± 0.12.
To CAUCUUCCAGUACAGUGUUGGA belongs 1.73 ± 0.073.
Take CAUGCCUUGAGUGUAGGACCGU: the “HRG-induced Akt activation (log2)” value amounted to 1.16 ± 0.11.
Take CAUGGUUCUGUCAAGCACCGCG: the “HRG-induced Akt activation (log2)” value was 1.34 ± 0.18.
CAUUAUUACUUUUGGUACGCG: the “HRG-induced Akt activation (log2)” value came to 1.58 ± 0.02.
As to CAUUGCACUUGUCUCGGUCUGA, the “HRG-induced Akt activation (log2)” value worked out at 1.74 ± 0.8.
To CCAAAACUGCAGUUACUUUUGC belongs 1.39 ± 0.13; to CCAAUAUUACUGUGCUGCUUUA, 1.45 ± 0.28; to CCAAUAUUGGCUGUGCUGCUCC, 1.32 ± 0.36.
The result for CCACACCGUAUCUGACACUUU reads 1.36 ± 0.12; that for CCACCACCGUGUCUGACACUU, 1.84 ± 0.088; that for CCAGACAGAAUUCUAUGCACUUUC, 1.93 ± 0.7.
The result for CCAGUAUUAACUGUGCUGCUGA reads 1.55 ± 0.32.
Regarding CCAGUCCUGUGCCUGCCGCCU, the “HRG-induced Akt activation (log2)” value was 1.88 ± 0.41.
Turning to CCAGUGGGGCUGCUGUUAUCUG, the “HRG-induced Akt activation (log2)” value turned out to be 1.78 ± 0.29.
On to CCAGUUACCGCUUCCGCUACCGC, for which the “HRG-induced Akt activation (log2)” value worked out at 1.323 ± 0.011.
CCAUGGAUCUCCAGGUGGGU: the “HRG-induced Akt activation (log2)” value worked out at 1.47 ± 0.17.
On to CCCAGAUAAUGGCACUCUCAA, for which the “HRG-induced Akt activation (log2)” value was determined as 1.55 ± 0.12.
On to CCCAGUGUUCAGACUACCUGUUC, for which the “HRG-induced Akt activation (log2)” value came out at 1.28 ± 0.6.
As to CCCAGUGUUUAGACUAUCUGUUC, the “HRG-induced Akt activation (log2)” value came to 1.58 ± 0.18.
Consider CCCCACCUCCUCUCUCCUCAG, for which the “HRG-induced Akt activation (log2)” value stood at 1.28 ± 0.38.
Turning to CCCCAGGGCGACGCGGCGGG, the “HRG-induced Akt activation (log2)” value is 2.057 ± 0.012.
